Measured values reported in patent US20060111335A1, “Photoactivated anti-viral and anti-cancer agent” (priority 2002, published 2006).

Tested on: CT DNA
Assay: Dark interaction of DPPZPHEN with CT DNA, UV-Vis absorption titration at 380 nm
Assay type: binding, calf
Settings: CT DNA, from molar extinction coefficient at 380 nm
Description: General. The quantity of DNA was determined by the Burton assay (Burton, Biochem. J., 62:315-322 (1956)), and its rhodium content was quantitated using flame atomic absorption spectroscopy (AA). The equilibrium constant for interaction between DPPZPHEN and CT-DNA in the dark was calculated from UV-Vis absorption titration measurements at 380 nm (Wolfe et al., Biochem., 26:6392-6396 (1987); Schemel et al., Biopolymers, 10:465-480 (1971)). Cell viability was determined using the MTT assay (Denizot et al., J. Immunol. Methods, 89:271-277 (1986)). SINV was purified on sucrose gradients as previously described (Owen et al., J. Virol., 70:2757-2763 (1996)). The titer was generally 7-8 log10 pfu/mL at the beginning of each experiment.
Interaction of DPPZPHEN with DNA. […] An intrinsic binding constant of […] 3.4×10^5 M^−1 was calculated using the molar extinction coefficient at the λmax (380 nm) at each titration point.

In the case of `[Cl-].[Cl][Rh+]12([Cl])([N]3C=CC=c4ccc5c(c43)[N]1C=CC=5)[N]1C=CC=c3c1c1c(c4nc5ccccc5nc34)=CC=C[N]12` [DPPZPHEN, cis-dichloro(dipyrido[3,2a-2′3′c]phenazine)(1,10-phenantroline) rhodium(III) chloride], the “intrinsic binding constant (Keq, association constant with DNA)” value is reported as 340000 M⁻¹.
